Reference: US20250099545A1, “COMPOSITIONS, SYSTEMS, AND METHODS FOR TREATING CANCER USING TUMOR TREATING FIELDS WITH IMMUNE CHECKPOINT INHIBITORS AND MHC CLASS I ACTIVATORS” (Novocure GmbH, priority 2023, published 2025)
Read-outs that look alike come from different tables or passages of the source.

Experiments:
[1] = tested on: MHC Class I expression in Panc02-luc mouse pancreatic cells; settings: TTFields (1.75V/cm and 150 kHz) plus 10 μM chloroquine, 72 h, vs untreated control
Description: Panc02-luc mouse pancreatic cells (10,000 cells/well) were incubated for 72 h with the following conditions: Control untreated, 10 μM chloroquine (autophagy inhibitor), TTFields (1.75V/cm and 150 kHz), and TTFields plus 10 μM chloroquine.
In FIG. 3, MHC Class I expression was evaluated in Panc02-luc mouse pancreatic cells (an orthotopic model of pancreatic cancer) following chloroquine (an autophagy inhibitor) treatment alone, TTFields application alone, and the combination of TTFields application with concomitant chloroquine treatment.

[2] = tested on: MHC Class I expression in A2780 human ovarian cancer cells; assay: MHC Class I expression in A2780 cells after alpelisib, TTFields or both; assay type: cell-based; settings: TTFields (1.75V/cm and 200 kHz) plus 250 nM alpelisib for 72 h, then 72 h without drug under TTFields, vs untreated control and single treatments
Description: A2780 human ovarian cancer cells (20,000 cells/well) were incubated for 144 h with the following conditions: Control untreated; 250 nM alpelisib (PI3K inhibitor) for 72 h—media containing the drug was removed, and fresh media without alpelisib was added for an additional 72 h incubation; TTFields (1.75V/cm and 200 kHz); TTFields plus 250 nM alpelisib for 72 h—media containing the drug was removed, and fresh media without alpelisib was added for an additional 72 h incubation under TTFields condition.

CCN(CC)CCCC(C)Nc1ccnc2cc(Cl)ccc12 (stereo not shown) [chloroquine]
MHC Class I expression [1]: increased significantly above the untreated cells | MHC Class I expression ([1]; listed as Chloroquine): increased with concomitant Chloroquine treatment

Cc1nc(NC(=O)N2CCC[C@H]2C(N)=O)sc1-c1ccnc(C(C)(C)C(F)(F)F)c1 [alpelisib]
MHC Class I expression [2]: greater than in the untreated control group as well as in the single treatment groups | MHC Class I expression ([2]; listed as Alpelisib): increased with concomitant Alpelisib treatment
